Source: US10966962B2, “Method for treating neurodegenerative diseases” (THE BOARD OF TRUSTEES OF THE LELAND STANFORD JUNIOR …, priority 2014, dated 2021)

System: HD transgenic mice
Assay: Wheel-running test in HD transgenic animals (R6/2)
Assay type: in vivo
Conditions: HD transgenic (R6/2); 25 mg/kg orally 3 times a week for 4 weeks from 6 weeks of age; constant speed 5 rpm
Procedure: The wheel-running test in this example was performed similarly to that described in Example 8. HD transgenic animals (R6/2) were purchased from Jackson Laboratories. […] HD transgenic mice were orally treated 3 times a week for 4 weeks with either 0.5% methylcellulose (n=8) or ZLN005 (Sigma) at 25 mg/kg in 0.5% methylcellulose (n=7), starting at 6 weeks of age. Subsequently, at 10 weeks of age, these mice were subjected to 2 weeks of training on a treadmill at a constant speed of 5 rpm (rotations per minute). After the training, mice were tested for motor performance at a constant speed of 5 rpm. […] Unpaired t-test was used for statistical analysis.

For `CC(C)(C)c1ccc(-c2nc3ccccc3[nH]2)cc1` [ZLN005, 2-(4-tert-butylphenyl)-1H-benzimidazole], which latency to fall is on record?
Its latency to fall is 110 s.
